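Five compound concentrations were applied to cells in 96-well plates for 48 hours; endpoints were derived by simple linear interpolation of the resulting dose-response curve. Abbreviation: GI50, concentration required for 50% inhibition of growth.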 Activity calls are given as the source filed them. Rule as the data show it: active = GI50 up to about 1.1 µM and inactive = higher.
Tests used:
Experiment in all cases: growth of human tumour cells (NCI), 48 h
[1] = tested on: RXF 631
[2] = tested on: MDA-N
[3] = tested on: SNB-75
[4] = tested on: SK-MEL-2
[5] = tested on: Malme-3M
[6] = tested on: MOLT-4
[7] = tested on: CCRF-CEM
[8] = tested on: M14
[9] = tested on: HCC 2998
[10] = tested on: A549
[11] = tested on: NCI-H23
[12] = tested on: SF-268
[13] = tested on: UO-31
[14] = tested on: PC-3
[15] = tested on: SK-MEL-28
[16] = tested on: HL-60
[17] = tested on: OVCAR-8
[18] = tested on: MDA-MB-231
[19] = tested on: OVCAR-5
[20] = tested on: KM12
[21] = tested on: RPMI-8226
[22] = tested on: HOP-18
[23] = tested on: HOP-92
[24] = tested on: SK-OV-3
[25] = tested on: SK-MEL-5
[26] = tested on: SNB-19
[27] = tested on: T47D
[28] = tested on: 786-0
[29] = tested on: CAKI-1
[30] = tested on: SF-539
[31] = tested on: LOX IMVI
[32] = tested on: OVCAR-3
[33] = tested on: ACHN
[34] = tested on: NCI-H522
[35] = tested on: BT-549
[36] = tested on: UACC-257
[37] = tested on: HOP-62
[38] = tested on: SNB-78
[39] = tested on: RXF 393
[40] = tested on: DU-145
[41] = tested on: HCT-116
[42] = tested on: DMS-273
[43] = tested on: UACC-62
[44] = tested on: A498
[45] = tested on: TK-10
[46] = tested on: NCI-H226
[47] = tested on: COLO 205
[48] = tested on: Hs-578T
[49] = tested on: M19-MEL
[50] = tested on: MCF7
[51] = tested on: IGROV-1
[52] = tested on: SN12C
[53] = tested on: EKVX
[54] = tested on: LXFL 529
[55] = tested on: OVCAR-4
[56] = tested on: HCT-15
[57] = tested on: SF-295
[58] = tested on: SR
[59] = tested on: DLD-1
[60] = tested on: U-251
[61] = tested on: NCI-H460
[62] = tested on: K562
[63] = tested on: HT-29
[64] = tested on: DMS-114
[65] = tested on: SW-620
[66] = tested on: KM-20L2
[67] = tested on: XF498

`N=S(c1ccccc1[N+](=O)[O-])c1ccccc1[N+](=O)[O-]` was tested, and the GI50 [1] was 1.8 µM (inactive), the GI50 [2] was 1.36 µM (inactive) and the GI50 [3] was 7.94 µM (inactive). For the same molecule, the GI50 [4] was 3.9 µM (inactive), the GI50 [5] was 2.72 µM (inactive) and the GI50 [6] was 1.8 µM (inactive). The GI50 [7] was 1.04 µM (active), the GI50 [8] was 2.69 µM (inactive) and the GI50 [9] was 3.4 µM (inactive). The GI50 [10] was 4.45 µM (inactive), the GI50 [11] was 3.52 µM (inactive) and the GI50 [12] was 4.73 µM (inactive). For the same molecule, the GI50 [13] was 1.87 µM (inactive), the GI50 [14] was 1.46 µM (inactive) and the GI50 [15] was 4.28 µM (inactive). The GI50 [16] was 0.933 µM (active), the GI50 [17] was 2.14 µM (inactive) and the GI50 [18] was 1.77 µM (inactive). The GI50 [19] was 4.13 µM (inactive), the GI50 [20] was 3.34 µM (inactive) and the GI50 [21] was 1.14 µM (inactive). For the same molecule, the GI50 [22] was 6.11 µM (inactive), the GI50 [23] was 1.89 µM (inactive) and the GI50 [24] was 8.63 µM (inactive). For the same molecule, the GI50 [25] was 1.78 µM (inactive), the GI50 [26] was 9.33 µM (inactive) and the GI50 [27] was 0.311 µM (active). The GI50 [28] was 1.38 µM (inactive), the GI50 [29] was 2.07 µM (inactive) and the GI50 [30] was 3.13 µM (inactive). The GI50 [31] was 0.76 µM (active), the GI50 [32] was 0.839 µM (active) and the GI50 [33] was 1.22 µM (inactive). The GI50 [34] was 0.494 µM (active), the GI50 [35] was 1.62 µM (inactive) and the GI50 [36] was 2.33 µM (inactive). For the same molecule, the GI50 [37] was 4.65 µM (inactive), the GI50 [38] was 2.68 µM (inactive) and the GI50 [39] was 2.69 µM (inactive). The GI50 [40] was 2.64 µM (inactive), the GI50 [41] was 1.23 µM (inactive) and the GI50 [42] was 2.16 µM (inactive). The GI50 [43] was 3.45 µM (inactive), the GI50 [44] was 28 µM (inactive) and the GI50 [45] was 3.84 µM (inactive). The GI50 [46] was 4.79 µM (inactive), the GI50 [47] was 1.3 µM (inactive) and the GI50 [48] was 4.68 µM (inactive). For the same molecule, the GI50 [49] was 3.3 µM (inactive), the GI50 [50] was 0.129 µM (active) and the GI50 [51] was 1.98 µM (inactive). The GI50 [52] was 1.11 µM (active), the GI50 [53] was 5.04 µM (inactive) and the GI50 [54] was 2.96 µM (inactive). The GI50 [55] was 0.914 µM (active) and the GI50 [56] was 0.912 µM.
In the case of `CCCCCCCCOCC(O)COC(=O)CCCCCCC` (stereo not given), the GI50 [1] is reported as > 100 µM (inactive), the GI50 [57] is reported as > 100 µM (inactive) and the GI50 [58] is reported as 17.4 µM (inactive). The GI50 [5] was > 100 µM (inactive), the GI50 [6] was 32.7 µM (inactive) and the GI50 [59] was > 100 µM (inactive). The GI50 [7] was 12.1 µM (inactive), the GI50 [8] was > 100 µM (inactive) and the GI50 [9] was 30.7 µM (inactive). The GI50 [60] was > 100 µM (inactive), the GI50 [10] was > 100 µM (inactive) and the GI50 [11] was 53.6 µM (inactive). For the same molecule, the GI50 [12] was 95.5 µM (inactive), the GI50 [13] was > 100 µM (inactive) and the GI50 [15] was > 100 µM (inactive). For the same molecule, the GI50 [61] was > 100 µM (inactive), the GI50 [16] was 32.4 µM (inactive) and the GI50 [17] was > 100 µM (inactive). The GI50 [62] was 31.2 µM (inactive), the GI50 [19] was > 100 µM (inactive) and the GI50 [63] was > 100 µM (inactive). For the same molecule, the GI50 [21] was 27.1 µM (inactive), the GI50 [22] was > 100 µM (inactive) and the GI50 [23] was 25.2 µM (inactive). For the same molecule, the GI50 [24] was > 100 µM (inactive), the GI50 [25] was > 100 µM (inactive) and the GI50 [26] was > 100 µM (inactive). The GI50 [64] was > 100 µM (inactive), the GI50 [28] was > 100 µM (inactive) and the GI50 [65] was > 100 µM (inactive). The GI50 [29] was > 100 µM (inactive), the GI50 [31] was > 100 µM (inactive) and the GI50 [32] was 18.3 µM (inactive). The GI50 [33] was > 100 µM (inactive), the GI50 [36] was 51.3 µM (inactive) and the GI50 [37] was > 100 µM (inactive). The GI50 [41] was > 100 µM (inactive), the GI50 [42] was 44.6 µM (inactive) and the GI50 [43] was 50.8 µM (inactive). The GI50 [44] was > 100 µM (inactive), the GI50 [45] was > 100 µM (inactive) and the GI50 [66] was > 100 µM (inactive). For the same molecule, the GI50 [46] was > 100 µM (inactive), the GI50 [47] was 79.3 µM (inactive) and the GI50 [49] was 70.8 µM (inactive). The GI50 [51] was > 100 µM (inactive), the GI50 [52] was > 100 µM (inactive) and the GI50 [54] was > 100 µM (inactive). The GI50 [55] was 34.4 µM (inactive) and the GI50 [56] was greater than 100 µM.
In the case of `CC1=C(C(=O)NCc2ccccc2)C(c2ccc(N(C)C)cc2)C(C(=O)NCc2ccccc2)=C(C)N1`, the GI50 [1] is reported as > 100 µM (inactive), the GI50 [3] is reported as 29.3 µM (inactive) and the GI50 [4] is reported as > 100 µM (inactive). The GI50 [57] was > 100 µM (inactive), the GI50 [5] was > 100 µM (inactive) and the GI50 [6] was > 100 µM (inactive). For the same molecule, the GI50 [59] was > 100 µM (inactive), the GI50 [7] was > 100 µM (inactive) and the GI50 [8] was > 100 µM (inactive). The GI50 [9] was > 100 µM (inactive), the GI50 [60] was > 100 µM (inactive) and the GI50 [10] was > 100 µM (inactive). For the same molecule, the GI50 [11] was > 100 µM (inactive), the GI50 [13] was > 100 µM (inactive) and the GI50 [15] was > 100 µM (inactive). For the same molecule, the GI50 [61] was > 100 µM (inactive), the GI50 [16] was > 100 µM (inactive) and the GI50 [17] was > 100 µM (inactive). For the same molecule, the GI50 [62] was > 100 µM (inactive), the GI50 [19] was > 100 µM (inactive) and the GI50 [63] was > 100 µM (inactive). The GI50 [20] was > 100 µM (inactive), the GI50 [21] was > 100 µM (inactive) and the GI50 [23] was > 100 µM (inactive). For the same molecule, the GI50 [24] was > 100 µM (inactive), the GI50 [25] was > 100 µM (inactive) and the GI50 [26] was > 100 µM (inactive). The GI50 [64] was > 100 µM (inactive), the GI50 [28] was > 100 µM (inactive) and the GI50 [65] was > 100 µM (inactive). The GI50 [29] was > 100 µM (inactive), the GI50 [30] was > 100 µM (inactive) and the GI50 [32] was > 100 µM (inactive). The GI50 [33] was > 100 µM (inactive), the GI50 [34] was 77.8 µM (inactive) and the GI50 [36] was > 100 µM (inactive). The GI50 [37] was > 100 µM (inactive), the GI50 [67] was > 100 µM (inactive) and the GI50 [38] was > 100 µM (inactive). The GI50 [39] was 11.7 µM (inactive), the GI50 [41] was > 100 µM (inactive) and the GI50 [42] was > 100 µM (inactive). The GI50 [43] was > 100 µM (inactive), the GI50 [44] was > 100 µM (inactive) and the GI50 [45] was > 100 µM (inactive). For the same molecule, the GI50 [66] was > 100 µM (inactive), the GI50 [46] was > 100 µM (inactive) and the GI50 [47] was > 100 µM (inactive). For the same molecule, the GI50 [49] was > 100 µM (inactive), the GI50 [51] was > 100 µM (inactive) and the GI50 [52] was > 100 µM (inactive). The GI50 [53] was > 100 µM (inactive), the GI50 [54] was > 100 µM (inactive) and the GI50 [55] was > 100 µM (inactive).
